In ChEMBL document CHEMBL1146577, “Sulfemodin 8-O-beta-D-glucoside, a new sulfated anthraquinone glycoside, and antioxidant phenolic compounds from Rheum emodi” (J Nat Prod, 2003) one finds IC50 data, which are given here for eleven compounds.

Values after ≈ are worked out from the molar mass of the structure shown.

In this experiment the test system is Radical scavenging activity. Kind of experiment: Antioxidant activity assessed as DPPH radical scavenging activity. Format: functional. (DPPH is a stable violet radical that fades when it is reduced.)

As a reminder, the IC50 is the concentration that gives 50% inhibition. As to `COc1cc(O[C@@H]2O[C@H](CO)[C@@H](O)[C@H](O)[C@H]2O)c2c(O)c(C(C)=O)c(C)cc2c1`, the IC50 amounted to 18.5 µg/mL (≈ 45.3 µM).

As for `COc1cc(O)c2c(c1)C(=O)c1cc(C)cc(O[C@@H]3O[C@H](CO)[C@@H](O)[C@H](O)[C@H]3O)c1C2=O`, the IC50 was more than 100 µg/mL.

Take `Cc1cc(O[C@@H]2O[C@H](CO)[C@@H](O)[C@H](O)[C@H]2O)c2c(c1)C(=O)c1cc(O)cc(O)c1C2=O`: the IC50 was more than 100 µg/mL.

In the case of `Oc1cc(O)c2c(c1)O[C@H](c1ccc(O)c(O)c1)[C@H](O)C2` [(-)-EPICATECHIN], the half-maximal inhibitory concentration (IC50) worked out at 1.7 µg/mL (≈ 5.86 µM).

Take `O=C1O[C@H]([C@@H](O)CO)C(O)=C1O` [ASCORBIC ACID]: the IC50 was 3.9 µg/mL (≈ 22.1 µM).

With `COc1cc(O)cc2c1C(=O)C(O)(Cc1ccc(O)cc1)O2` (stereo unspecified) [CARPUSIN], the IC50 is 4.7 µg/mL (≈ 15.5 µM).

For the compound `Cc1cc(O)c2c(c1)C(=O)c1cccc(O)c1C2=O` [CHRYSOPHANOL], the IC50 is more than 100 µg/mL.

In the case of `Cc1cc(O)c2c(c1)C(=O)c1cc(O)cc(O)c1C2=O` [EMODIN], the IC50 was more than 100 µg/mL.

On to `O=C1c2c(O)cc(O)cc2OC1(O)Cc1ccc(O)cc1` (stereo unspecified) [MAESOPSIN], for which the IC50 turned out to be 5.3 µg/mL (≈ 18.4 µM).

On to `COc1cc(O)c2c(c1)C(=O)c1cc(C)cc(O)c1C2=O` [PHYSCION], for which the IC50 is more than 100 µg/mL.

For the compound `Cc1cc(O)c2c(c1)C(=O)c1cccc(O[C@@H]3O[C@H](CO)[C@@H](O)[C@H](O)[C@H]3O)c1C2=O` [PULMATIN], the IC50 is more than 100 µg/mL.
